What was measured:
[1] = test system: injured Achilles tendon; assay: Rat model of Achilles tendon injury, histology (H&E) and histopathological score; assay type: in vivo; details: 1 week postoperative
Description: Representative micrographs of the histopathological analysis by H&E staining. H&E-stained sections in higher magnification show uninjured tendon tissue with a relative scarcity of cells among the collagen fibers.
(A) Representative H&E-stained longitudinal sections in higher magnification show the nuclei morphologies in uninjured tendon tissue and injured tendon treated with vehicle/alginate and 29-mer/alginate for 1 week. (B) Histopathological scores. Total scores were determining by fiber structure, fiber arrangement, rounding of the nuclei, resident cell density and inflammation (infiltration of inflammatory cells, neovascularization and fatty deposits). Data are reported as mean±SE. *P<0.0005 versus vehicle/alginate-treated tendon; ^#P<0.05 versus 29-mer/alginate-treated tendon.
(§1) To investigate the effects of the 29-mer peptide on tendon healing, a rat model of Achilles tendon injury was established as reported by Orhan et al. (The effect of extracorporeal shock waves on a rat model of injury to tendon Achilles. A histological and biomechanical study. J. Bone Joint Surg. Br. 2004;.86(4):.613-618). Adult 10-week-old male Sprague-Dawley rats (initial body weight=312±11 g) were anesthetized by an intraperitoneal injection of xylazine (10 mg/kg). Then, the left tendo Achilles injury was created by full-thickness insertion of an 18-G needle through tendo Achilles 1 cm proximal to the calcaneum attachment site. This created a horizontal wound that was flanked by intact tendon tissue to prevent the retraction of severed ends. The skin incision was closed after the wound was irrigated with sterile saline. Treatments were applied to area around the tendon lesion by subcutaneous injection with 150 μl of alginate gel mixed with 100 μM 29-mer or DMSO vehicle (six rats per experimental condition).
The tendon and surrounding soft tissue were dissected. Specimens were fixed in a 4% paraformaldehyde (PFA) solution and then were embedded in paraffin blocks. Sections (5 μm in thickness) were longitudinally cut and stained with hematoxylin and eosin (H&E) or used for immunohistochemical examination. 36 sections per tendon were carefully prepared so as to include the most severely degenerated area. Images were captured using a Nikon Eclipse 80i microscope (Nikon Corporation, Tokyo, Japan) equipped with a Leica DC 500 camera (Leica Microsystems, Wetzlar, Germany). Four sections of each sample containing injured tendon tissues were selected and evaluated by two blinded observers to assess the tendon morphology according to a modified semi-quantitative grading score from 0 to 3 proposed by Chen et al. (Tendon derived stem cells promote platelet-rich plasma healing in collagenase-induced rat Achilles tendinopathy. Cell Physiol. Biochem., 2014; 34(6): 2153-68). The scores analyzed the fiber structure (0-3), fiber arrangement (0-3), rounding of the nuclei (0-3), resident cell density (0-3), and inflammation (0-3; infiltration of inflammatory cells, neovascularization and fatty deposits). According to this grading system, a perfectly normal tendon obtained a score of 0, whereas a score of 15 was assigned to maximally abnormal tendons.
To investigate the therapeutic effect of the 29-mer peptide on injured tendon, a rat model of Achilles tendon injury was established by full-thickness insertion of an 18-G needle through the tendon Achilles. We delivered the 29-mer in a 150 μl alginate gel, which releases 90% loaded 29-mer in 5 days as described in a previous protocol (Ho et al., PEDF-derived peptide promotes skeletal muscle regeneration through its mitogenic effect on muscle progenitor cells. Am J Physiol. Cell Physiol. 2015 Aug. 1; 309(3): C159-68).

[2] = test system: CD146-positive TSPC; assay: CD146 immunostaining of TSPC in injured Achilles tendon; assay type: in vivo, rat; details: 1 week after wounding; peptide/alginate gel; vehicle/alginate 38.3±7.8
Experimental: (A) Representative CD146-stained longitudinal sections. (Original magnification×200). (B) The number of CD146-positive TSPC per 200×field of view on injured tendon sections. Data are reported as mean±SE. Total CD146^+ cells were evaluated from 6 sections/tendon specimen, with 3 rats in each group. *P<0.001 versus vehicle/alginate-treated tendon; #p <0.001 versus 29-mer/alginate-treated tendon.
as §1, with “The skin incision was closed after the wound was irrigated with sterile saline. Treatments were applied to area around the tendon lesion by subcutaneous injection with 150 μl of alginate gel mixed with 100 μM 29-mer or DMSO vehicle (six rats per experimental condition).” left out
CD146 is one of the TSPC markers. […] To test the mechanism of the 29-mer-induced tendon repair, CD146 immunostaining of TSPC located at injured tendon was measured, at 1 week after wounding. […]

Sequence: SLGAEQRTESIIHRALYYDLISSPDIHGT (listed as Homo sapiens) [29-mer, PEDF-derived short peptide, human PEDF residues 93-121]
- total histopathological score ([1]; peptide/alginate gel, 0 = normal tendon, 15 = maximally abnormal, vehicle/alginate 12.7±0.6): 7.9±0.4
- histological appearance of treated tendon (H&E staining) ([1]; subcutaneous 150 μl alginate gel with 100 μM peptide): uniform appearance of well-aligned collagen fibers
- number of CD146-positive TSPC on injured tendon sections [2]: 86.8±6.0 cells per 200× field

Source: patent US20210244791A1, “APPLICATION OF PEDF-DERIVED SHORT PEPTIDES IN TENDON HEALING” (BRIM Biotechnology, Inc., priority 2018, published 2021)
